Patent US20230014445A1, “ALLOSTERIC CHROMENONE INHIBITORS OF PHOSPHOINOSITIDE 3-KINASE (PI3K) FOR THE TREATMENT OF DISEASE” (Petra Pharma Corporation, priority 2021, published 2023)
Read-outs that look alike come from different tables or passages of the source. Each block holds one molecule with its values, some of them ahead of it.

Experiments:
[1] = biological target: T1, human full length PIK3KA H1047R mutant (p110α/p85α complex) (Homo sapiens, UniProt P42336, H1047R); experiment: PI3K-Alpha Kinase (PIK3CA) biochemical activity, H1047R mutant (ADP-Glo); details: 20 uM ATP
T1 construct: Recombinant, catalytically active human full length PIK3KA Wild-type and H1047R mutant were purchased; 6xHis (N); purchased EMD Millipore Sigma 14-792M
Outline: (§1)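 ADP formation, measured by ADP-Glo luminescence after reaction to about 10% ATP conversion at 27° C., gives 10-point 4-parameter IC50 curves normalized to no-enzyme and DMSO controls. Lipid substrate was PIP2diC8 or Soy PI at 50 uM, with 20 uM ATP. WT or H1047R p110α/p85α complex (1-5 nM) was preincubated 1 h with compound.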

[2] = biological target: T2, human full length PIK3KA Wild-type (p110α/p85α complex) (Homo sapiens, UniProt P42336); experiment: PI3K-Alpha Kinase (PIK3CA) biochemical activity, wild-type (ADP-Glo); details: 20 uM ATP
T2 construct: Recombinant, catalytically active human full length PIK3KA Wild-type and H1047R mutant were purchased; 6xHis (N); purchased EMD Millipore Sigma 14-602M
Outline: as §1

[3] = biological target: PI3K-α (PIK3CA) in MDA-MB-453 cells (Homo sapiens, UniProt P42336); experiment: PI3K-Alpha Kinase (PIK3CA) activity in vitro cell based assay (AlphaLisa SureFire)
Procedure: PI3K-Alpha Kinase (PIK3CA) Activity In Vitro Cell Based Assay and Determining IC50 Values for Inhibitors
The MDA-MB-453 (ATCC-HTB-131) cell line was obtained from the American Type Culture Collection (Manassas, Va.). Cells were maintained in Dulbecco's Modified Eagle Media (DMVEM, Gibco 11965-092) supplemented with 10% Fetal Bovine Serum, heat inactivated (FBS HI, Gibco 10082-147), 1× non-essential amino acids (NEAA, Gibco 11140-050), and 1 mM sodium pyruvate (Gibco 11360-070). Cultures were maintained in a humidified incubator at 37° C. under […].
For compound testing in 0% FBS, MDA-MB-453 cells were seeded at a density of 1.5×10^4 cells per well in white 384-well plates in 20 μl of Minimum Essential Media (MEM) assay media with 1×NEAA, 1 mM sodium pyruvate, and 1 μg/mL human insulin (Sigma I9278). Compounds dissolved in 10 mM stock solutions in DMSO were serially diluted 1:3 in DMSO to generate a 10-point dilution series and plated using an acoustic liquid handler system (Echo 550 Series Liquid Handler, Labcyte). A 5× intermediate compound dilution plate in MEM with 1×NEAA and 1 mM sodium pyruvate (150 μM starting compound concentration in 1.5% DMSO) was then prepared. Five μl of the intermediate serially diluted compounds were added to the cell plate to final concentrations ranging from […] in 0.3% DMSO. 0.3% DMSO alone was used to establish the maximum (MAX) signal and GDC-0032 at a final concentration of 1 μM was used as a reference compound for the minimum (MIN) signal. After 3 hours treatment, the medium was removed, and the cells lysed in 10 μL of 1× SureFire Lysis buffer with shaking for 10 minutes at room temperature. The Acceptor Mix (Reaction Buffer 1+Reaction Buffer 2+Activation Buffer+SureFire Ultra Acceptor Beads) was prepared by diluting Activation buffer 25-fold in combined Reaction Buffer 1 and Reaction Buffer 2. The Acceptor beads were diluted 50-fold in the combined Reaction Buffers. Five μL of Acceptor Mix was added to each well, the plate was sealed and covered with foil and incubated for 1 hour at room temperature. The Donor Mix (dilution buffer+SureFire Ultra Donor Beads) was prepared by diluting Donor Beads 50-fold in dilution buffer. Five μL of the Donor Mix was added to each well and the plate sealed and covered with foil and incubated for 1 hour at room temperature in the dark. The plates were read on a Neo2 plate reader instrument from Biotek using standard AlphaLisa settings.
Compounds were tested in duplicate and the average % inhibition at each compound concentration was used to generate a single dose response curve. The data were processed using the Genedata-Screener tool. Relative IC50 values were determined using luminescence units by calculating percent inhibition with respect to the in-plate “MIN” (GDC-0032 reference control) and “MAX” (DMSO) controls. The data was analyzed using a 4-parameter nonlinear logistic equation (four-parameter logistic concentration-response curve):
Y=bottom+[(top−bottom)/1+(X/IC50)slope]
where Y=% inhibition, X=concentration of inhibitor, bottom=minimum value of y attained by curve-fit, top=maximum value of y attained by curve-fit and slope=steepness of curve at the IC50.
% Inhibition=[(signal at X−median Min)/(median Max−median Min)]×100
IC50: concentration of compound that reduces a given response (ligand binding, enzyme response) by 50%. Relative IC50: concentration giving half the compound's maximum response.
For IC50 values shown in Table B, “A” means IC50<50 nM; “B” means IC50 ranging between 50 nM and 100 nM; “C” means IC50 ranging between 100 nM and 500 nM; “D” means IC50>500 nM.

[4] = 0% FBS, 3 hours treatment, read-out: PI3K-α (PIK3CA) in vitro cell based assay IC50
[5] = read-out: PI3K-α (PIK3CA) in vitro cell based assay IC50, 0% FBS, 3 hours treatment

T1 sequence (P42336 whole entry H1047R): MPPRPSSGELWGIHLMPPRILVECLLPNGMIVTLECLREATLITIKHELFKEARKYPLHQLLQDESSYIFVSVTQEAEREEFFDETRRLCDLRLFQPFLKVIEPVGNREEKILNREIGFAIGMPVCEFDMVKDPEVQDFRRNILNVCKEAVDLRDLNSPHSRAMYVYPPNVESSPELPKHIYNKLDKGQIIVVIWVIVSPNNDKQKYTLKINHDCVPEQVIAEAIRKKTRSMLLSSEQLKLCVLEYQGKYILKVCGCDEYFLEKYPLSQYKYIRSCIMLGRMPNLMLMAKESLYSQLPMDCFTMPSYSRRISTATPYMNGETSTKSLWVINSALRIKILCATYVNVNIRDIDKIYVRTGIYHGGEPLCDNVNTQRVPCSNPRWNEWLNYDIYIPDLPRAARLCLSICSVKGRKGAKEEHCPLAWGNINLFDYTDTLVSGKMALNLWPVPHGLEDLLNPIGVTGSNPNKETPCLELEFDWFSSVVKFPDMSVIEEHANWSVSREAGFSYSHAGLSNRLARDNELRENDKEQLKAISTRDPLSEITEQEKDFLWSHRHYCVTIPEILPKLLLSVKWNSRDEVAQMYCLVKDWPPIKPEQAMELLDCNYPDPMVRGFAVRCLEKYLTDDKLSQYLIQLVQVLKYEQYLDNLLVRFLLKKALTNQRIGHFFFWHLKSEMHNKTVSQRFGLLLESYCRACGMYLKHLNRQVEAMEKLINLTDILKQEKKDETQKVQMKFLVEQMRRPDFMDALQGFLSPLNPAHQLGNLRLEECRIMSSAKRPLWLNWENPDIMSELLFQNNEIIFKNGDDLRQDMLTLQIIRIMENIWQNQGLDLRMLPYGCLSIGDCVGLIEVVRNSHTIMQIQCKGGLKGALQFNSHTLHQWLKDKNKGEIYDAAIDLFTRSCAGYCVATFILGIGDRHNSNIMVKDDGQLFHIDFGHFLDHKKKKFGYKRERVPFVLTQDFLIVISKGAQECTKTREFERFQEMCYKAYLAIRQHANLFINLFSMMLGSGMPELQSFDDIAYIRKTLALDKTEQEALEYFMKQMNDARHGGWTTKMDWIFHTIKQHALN
T1 sequence (P27986 whole entry partner): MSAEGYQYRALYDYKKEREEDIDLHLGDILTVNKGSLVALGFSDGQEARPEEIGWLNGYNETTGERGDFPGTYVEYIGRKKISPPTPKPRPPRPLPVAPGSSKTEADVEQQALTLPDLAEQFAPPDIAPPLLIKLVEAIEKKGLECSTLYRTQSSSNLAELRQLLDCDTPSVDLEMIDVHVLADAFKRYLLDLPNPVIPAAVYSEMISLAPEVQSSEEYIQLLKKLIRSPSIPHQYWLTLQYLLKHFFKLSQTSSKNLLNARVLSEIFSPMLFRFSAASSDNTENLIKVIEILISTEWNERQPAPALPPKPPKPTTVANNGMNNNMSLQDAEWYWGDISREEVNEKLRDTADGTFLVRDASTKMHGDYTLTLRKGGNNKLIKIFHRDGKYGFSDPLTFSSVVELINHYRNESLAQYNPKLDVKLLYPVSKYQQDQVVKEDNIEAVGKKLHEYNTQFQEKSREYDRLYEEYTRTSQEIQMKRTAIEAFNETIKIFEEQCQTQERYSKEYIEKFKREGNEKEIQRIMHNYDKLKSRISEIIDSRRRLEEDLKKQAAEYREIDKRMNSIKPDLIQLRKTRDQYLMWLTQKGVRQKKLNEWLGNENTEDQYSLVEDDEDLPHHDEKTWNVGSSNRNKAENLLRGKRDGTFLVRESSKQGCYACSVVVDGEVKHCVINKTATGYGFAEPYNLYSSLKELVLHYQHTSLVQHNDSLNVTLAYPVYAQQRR
Chain of PI3K-α (PIK3CA) in MDA-MB-453 cells (P42336 whole entry): as the sequence (P42336 whole entry H1047R) above, with R1047H counted along it
Chain of PI3K-α (PIK3CA) in MDA-MB-453 cells (P27986 2-724, further chain): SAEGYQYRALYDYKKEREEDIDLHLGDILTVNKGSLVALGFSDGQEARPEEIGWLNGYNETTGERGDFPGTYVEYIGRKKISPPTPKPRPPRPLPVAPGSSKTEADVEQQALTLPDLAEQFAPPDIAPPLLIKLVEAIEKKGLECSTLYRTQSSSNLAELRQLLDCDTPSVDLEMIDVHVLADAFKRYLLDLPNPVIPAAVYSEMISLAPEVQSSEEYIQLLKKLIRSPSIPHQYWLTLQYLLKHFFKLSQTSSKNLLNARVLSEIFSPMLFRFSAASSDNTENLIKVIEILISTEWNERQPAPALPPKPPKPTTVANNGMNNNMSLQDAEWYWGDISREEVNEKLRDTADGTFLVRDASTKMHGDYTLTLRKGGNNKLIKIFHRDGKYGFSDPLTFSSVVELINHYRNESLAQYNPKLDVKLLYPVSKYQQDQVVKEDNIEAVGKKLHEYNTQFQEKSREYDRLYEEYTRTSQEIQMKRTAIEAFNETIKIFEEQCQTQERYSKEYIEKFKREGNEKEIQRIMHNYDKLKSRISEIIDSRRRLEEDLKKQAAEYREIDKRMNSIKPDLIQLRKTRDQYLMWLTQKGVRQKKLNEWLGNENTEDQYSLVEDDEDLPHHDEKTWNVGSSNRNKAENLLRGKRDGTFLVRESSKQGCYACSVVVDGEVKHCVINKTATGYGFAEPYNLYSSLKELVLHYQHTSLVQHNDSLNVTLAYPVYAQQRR

- IC50 ([1]; PIP2diC8 lipid substrate): > 10 µM
- IC50 ([2]; PIP2diC8 lipid substrate): > 10 µM
- IC50 [3, 4]: > 0.5 µM
Structure (SMILES): COc1ncc(-c2cc(=O)c3cc(C)cc(C(C)Nc4ccccc4C(=O)O)c3o2)cn1 (single isomer, unassigned) [Example 5, 2-[1-[2-(2-Methoxypyrimidin-5-yl)-6-methyl-4-oxo-chromen-8-yl]ethylamino]benzoic acid]

Structure (SMILES): Cc1cc(C(C)Nc2ccccc2C(=O)O)c2oc(-c3cncc(F)c3)cc(=O)c2c1 (single isomer, unassigned) [Example 44, 2-[1-[2-(5-Fluoro-3-pyridyl)-6-methyl-4-oxo-chromen-8-yl]ethylamino]benzoic acid, Isomer 2,2,2,2-trifluoroacetic acid]
- IC50 ([1]; Soy PI lipid substrate): < 0.5 µM
- IC50 ([2]; Soy PI lipid substrate): 1 to 5 µM
- IC50 [3, 5]: < 0.05 µM

Structure (SMILES): CC(Nc1ccccc1C(=O)O)c1cc(F)cc2c(=O)cc(-c3ccccn3)oc12 (single isomer, unassigned) [Example 46, 2-[1-[6-Fluoro-4-oxo-2-(2-pyridyl)chromen-8-yl]ethylamino]benzoic acid, Isomer 1,2,2,2-trifluoroacetic acid]
- IC50 ([1]; Soy PI lipid substrate): < 0.5 µM
- IC50 ([2]; Soy PI lipid substrate): 5 to 10 µM
- IC50 [3, 5]: < 0.05 µM

Structure (SMILES): Cc1cc(C(C)Nc2ccccc2C(=O)O)c2oc(-c3cnn(C(F)F)c3)cc(=O)c2c1 (single isomer, unassigned) [Example 52, 2-[1-[2-[1-(Difluoromethyl)pyrazol-4-yl]-6-methyl-4-oxo-chromen-8-yl]ethylamino]benzoic acid, Isomer 2,2,2,2-trifluoroacetic acid]
- IC50 ([1]; Soy PI lipid substrate): < 0.5 µM
- IC50 ([2]; Soy PI lipid substrate): 1 to 5 µM
- IC50 [3, 5]: 0.05 to 0.1 µM

Structure (SMILES): CC(Nc1ccccc1C(=O)O)c1cc(F)cc2c(=O)cc(-c3cnn(-c4cccnc4)c3)oc12 (single isomer, unassigned) [Example 55, 2-[1-[6-Fluoro-4-oxo-2-[1-(3-pyridyl)pyrazol-4-yl]chromen-8-yl]ethylamino]benzoic acid, Isomer 1,2,2,2-trifluoroacetic acid]
- IC50 ([1]; Soy PI lipid substrate): < 0.5 µM
- IC50 ([2]; Soy PI lipid substrate): 5 to 10 µM
- IC50 [3, 5]: 0.1 to 0.5 µM

Structure (SMILES): COc1ccc(-c2oc3c(C(C)Nc4ccccc4C(=O)O)cc(C)cc3c(=O)c2C)cn1 (single isomer, unassigned) [Example 65, 2-[1-[2-(6-Methoxy-3-pyridyl)-3,6-dimethyl-4-oxo-chromen-8-yl]ethylamino]benzoic acid, Isomer 1,2,2,2-trifluoroacetic acid]
- IC50 ([1]; Soy PI lipid substrate): < 0.5 µM
- IC50 ([2]; Soy PI lipid substrate): 1 to 5 µM
- IC50 [3, 5]: < 0.05 µM

Structure (SMILES): COc1ccccc1-n1cc(-c2oc3c(C(C)Nc4ccccc4C(=O)O)cc(C)cc3c(=O)c2C)cn1 (single isomer, unassigned) [Example 70, 2-[1-2-[1-(2-Methoxyphenyl)pyrazol-4-yl]-3,6-dimethyl-4-oxo-chromen-8-yl]ethylamino]benzoic acid, Isomer 1,2,2,2-trifluoroacetic acid]
- IC50 ([1]; Soy PI lipid substrate): 1 to 5 µM
- IC50 ([2]; Soy PI lipid substrate): 1 to 5 µM
- IC50 [3, 5]: < 0.05 µM

Structure (SMILES): COc1ncc(-n2cc(-c3oc4c(C(C)Nc5ccccc5C(=O)O)cc(C)cc4c(=O)c3C)cn2)cn1 (single isomer, unassigned) [Example 72, 2-[1-[2-[1-(2-Methoxypyrimidin-5-yl)pyrazol-4-yl]-3,6-dimethyl-4-oxo-chromen-8-yl]ethylamino]benzoic acid, Isomer 1,2,2,2-trifluoroacetic acid]
- IC50 ([1]; Soy PI lipid substrate): < 0.5 µM
- IC50 ([2]; Soy PI lipid substrate): 1 to 5 µM
- IC50 [3, 5]: 0.05 to 0.1 µM

Structure (SMILES): Cc1cc(C(C)Nc2ccccc2C(=O)O)c2oc(-c3cnn(-c4ccc(C#N)cc4)c3)c(C)c(=O)c2c1 (single isomer, unassigned) [Example 73, 2-[1-[2-[1-(4-Cyanophenyl)pyrazol-4-yl]-3,6-dimethyl-4-oxo-chromen-8-yl]ethylamino]benzoic acid, Isomer 1,2,2,2-trifluoroacetic acid]
- IC50 ([1]; Soy PI lipid substrate): < 0.5 µM
- IC50 ([2]; Soy PI lipid substrate): 0.5 to 1 µM
- IC50 [3, 5]: 0.05 to 0.1 µM

Structure (SMILES): Cc1cc(C(C)Nc2ccccc2C(=O)O)c2oc(-c3cnn(-c4cccc(C#N)c4)c3)c(C)c(=O)c2c1 (single isomer, unassigned) [Example 74, 2-[1-[2-[1-(3-Cyanophenyl)pyrazol-4-yl]-3,6-dimethyl-4-oxo-chromen-8-yl]ethylamino]benzoic acid, Isomer 1,2,2,2-trifluoroacetic acid]
- IC50 ([1]; Soy PI lipid substrate): < 0.5 µM
- IC50 ([2]; Soy PI lipid substrate): 0.5 to 1 µM
- IC50 [3, 5]: < 0.05 µM

Structure (SMILES): COc1ccc(-n2cc(-c3cc(=O)c4cc(C)cc(C(C)Nc5ccccc5C(=O)O)c4o3)nn2)cc1OC (single isomer, unassigned) [Example 133, 2-[1-[2-[1-(3,4-Dimethoxyphenyl)triazol-4-yl]-6-methyl-4-oxo-chromen-8-yl]ethylamino]benzoic acid, Isomer 2,2,2,2-trifluoroacetic acid]
- IC50 [3, 5]: 0.1 to 0.5 µM

Structure (SMILES): COc1ccc(-n2nncc2-c2cc(=O)c3cc(C)cc(C(C)Nc4ccccc4C(=O)O)c3o2)cc1OC (single isomer, unassigned) [Example 134, 2-[1-[2-[3-(3,4-Dimethoxyphenyl)triazol-4-yl]-6-methyl-4-oxo-chromen-8-yl]ethylamino]benzoic acid, Isomer 2,2,2,2-trifluoroacetic acid]
- IC50 [3, 5]: > 0.5 µM

- IC50 [3, 4]: < 0.05 µM
Structure (SMILES): Cc1cc(C(C)Nc2ccccc2C(=O)O)c2oc(-c3cnn(C)c3)c(C)c(=O)c2c1 (single isomer, unassigned; isomer 1) [Example 136, 2-[1-[3,6-Dimethyl-2-(1-methylpyrazol-4-yl)-4-oxo-chromen-8-yl]ethylamino]benzoic acid, Isomer 1]

- IC50 [3, 4]: < 0.05 µM
Structure (SMILES): Cc1cc(C(C)Nc2ccc(Cl)nc2C(=O)O)c2oc(-c3cncc(F)c3)c(C)c(=O)c2c1 (single isomer, unassigned; isomer 1) [Example 138, 6-Chloro-3-[1-[2-(5-fluoro-3-pyridyl)-3,6-dimethyl-4-oxo-chromen-8-yl]ethylamino]pyridine-2-carboxylic acid, Isomer 1]

Structure (SMILES): Cc1cc(C(C)Nc2cccnc2C(=O)O)c2oc(-c3cccc(C(F)F)n3)c(C)c(=O)c2c1 (single isomer, unassigned; isomer 1) [Example 139, 3-[1-[2-[6-(Difluoromethyl)-2-pyridyl]-3,6-dimethyl-4-oxo-chromen-8-yl]ethylamino]pyridine-2-carboxylic acid; 2,2,2-trifluoroacetic acid, Isomer 1]
- IC50 [3, 5]: 0.1 to 0.5 µM

- IC50 [3, 4]: 0.05 to 0.1 µM
Structure (SMILES): Cc1cc(C(C)Nc2cccc(F)c2C(=O)O)c2oc(-c3ccccn3)c(C)c(=O)c2c1 (single isomer, unassigned; isomer 1) [Example 140, 2-[1-[3,6-Dimethyl-4-oxo-2-(2-pyridyl)chromen-8-yl]ethylamino]-6-fluoro-benzoic acid, Isomer 1]

- IC50 [3, 4]: < 0.05 µM
Structure (SMILES): Cc1cc(C(C)Nc2ccc(Cl)nc2C(=O)O)c2oc(-c3cccc(C(F)F)n3)c(C)c(=O)c2c1 (single isomer, unassigned; isomer 1) [Example 141, 6-Chloro-3-[1-[2-[6-(difluoromethyl)-2-pyridyl]-3,6-dimethyl-4-oxo-chromen-8-yl]ethylamino]pyridine-2-carboxylic acid, Isomer 1]
